Experimental data: patent publication EP1862454A1, “Novel compounds, isomer thereof or pharmaceutically acceptable salts thereof as vanilloid receptor antagonist; and a pharmaceutical composition containing the same” (Amorepacific Corporation, priority 2006, dated 2007)

Legend:
vanilloid receptor = biological target: T1, vanilloid receptor (Rattus norvegicus, UniProt O35433); assay: 45Ca influx test in primary culture of neonatal rat DRG neurons, inhibition of the capsaicin response; type: cell-based, SD rats; settings: DRG nerve cells; capsaicin 0.5 µM; 45Ca 10 µCi/ml; 10 mins at room temperature; read-out: Antagonist Calcium Uptake Test (IC50)
T1 construct: DRG nerve cells from the primary culture of 2 days were equilibrated; endogenous in cells; host or cells: primary culture of dorsal root ganglion neurons from neonatal SD rats
T1 sequence (O35433 whole entry): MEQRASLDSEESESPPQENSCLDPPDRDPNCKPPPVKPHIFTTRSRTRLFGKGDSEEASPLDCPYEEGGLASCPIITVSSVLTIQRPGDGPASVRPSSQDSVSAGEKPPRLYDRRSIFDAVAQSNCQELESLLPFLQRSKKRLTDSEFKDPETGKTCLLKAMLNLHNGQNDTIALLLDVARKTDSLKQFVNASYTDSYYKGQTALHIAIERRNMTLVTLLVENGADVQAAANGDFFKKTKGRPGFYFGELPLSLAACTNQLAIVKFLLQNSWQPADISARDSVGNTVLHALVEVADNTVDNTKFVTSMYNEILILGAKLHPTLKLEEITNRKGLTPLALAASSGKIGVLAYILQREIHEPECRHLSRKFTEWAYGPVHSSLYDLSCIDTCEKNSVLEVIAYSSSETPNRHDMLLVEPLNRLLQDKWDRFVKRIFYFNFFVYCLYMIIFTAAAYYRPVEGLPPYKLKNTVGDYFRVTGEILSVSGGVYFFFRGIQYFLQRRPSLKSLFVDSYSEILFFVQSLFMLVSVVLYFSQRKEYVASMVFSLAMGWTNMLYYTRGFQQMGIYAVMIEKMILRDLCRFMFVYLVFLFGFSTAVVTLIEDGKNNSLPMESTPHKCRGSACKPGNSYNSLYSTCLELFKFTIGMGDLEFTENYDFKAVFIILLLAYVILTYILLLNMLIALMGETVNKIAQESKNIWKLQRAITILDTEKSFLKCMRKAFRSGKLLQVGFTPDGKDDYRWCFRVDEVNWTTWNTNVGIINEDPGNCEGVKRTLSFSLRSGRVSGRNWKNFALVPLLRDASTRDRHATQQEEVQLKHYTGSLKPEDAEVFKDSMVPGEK
Experimental: 1) Separation of spinal dorsal root ganglia (DRG) in newborn rats and primary culture thereof
Neonatal (2-3 day old or younger than 2-3 day old) SD rats were put in ice for 5 minutes to anesthetize and disinfected with 70% ethanol. DRG of all part of spinal cord were dissected (Wood et al., 1988, J. Neurosci. 8, pp3208-3220) and collected in DME/F12 medium to which 1.2g/l sodium bicarbonate and 50mg/l gentamycin were added. The DRG were incubated sequentially at 37°C for 30 min in 200 U/ml collagenase and 2.5mg/ml trypsin, separately. The ganglia were washed twice with DME/F12 medium supplemented with 10% horse serum, triturated through a fire-polished Pasteur pipette, filtered through Nitex 80 membrane to obtain single cell suspension and the suspension was washed once more. This was subjected to centrifugation, then resuspended in cell culture medium at certain level of cell density. As the cell culture medium, DME/F12 medium supplemented with 10% horse serum was diluted with identical medium conditioned by C6 glioma cells 2 days on a confluent monolayer (1:1), and NGF (Nerve Growth Factor) was added to adjust 200ng/ml as final concentration. After the cells were grown for 2 days in medium where cytosine arabinoside (Ara-C, 100 µM) was added to kill dividing nonneuronal cells, medium was changed to one without Ara-C. The resuspended cells were plated at a density of 1500-2000 neurons/well onto Terasaki plates previously coated with 10 µg/ml poly-D-ornithine.
2) ^45 Ca influx experiments
DRG nerve cells from the primary culture of 2 days were equilibrated by washing 4 times with HEPES (10mM, pH 7.4)-buffered Ca ^2+, Mg^2+-free HBSS (H-HBSS). The solution in each well was removed from the individual well. Medium containing the test compound plus capsaicin (final concentration 0.5 µM) and ^45Ca (final concentration 10 µCi/ml) in H-HBSS was added to each well and incubated at room temperature for 10 mins. Terasaki plates were washed five times with H-HBSS and dried at room temperature. To each well, 0.3% SDS (10 µl) was added to elute ^45Ca. After the addition of scintillation cocktail into each well, the amount of ^45Ca influx into neuron was measured by counting radioactivity. Antagonistic activities of test compounds against vanilloid receptor were calculated as percent of the inhibition of maximal response of capsaicin at a concentration of 0.5 µM. […]

Male ICR mice = assay: Analgesic activity test: mouse writhing test induced with phenyl-p-quinone; type: in vivo; settings: writhes counted vs control group
Experimental: 2. Analgesic activity test: Mouse writhing test by inducing with phenyl-p-quinone
Male ICR mice (mean body weight 25g) were maintained in a controlled lighting environment (12 h on/ 12 h off) for experiment. Animals received an intraperitoneal injection of 0.3ml of the chemical irritant phenyl-p-quinone (dissolved in saline containing 5% ethanol to be a dose of 4.5mg/kg) and 6 mins later, the number of abdominal constrictions was counted in the subsequent 6 mins period. Animals (10 animals/group) received 0.2ml of test compounds solution in vehicle of ethanol/Tween 80/saline (10/10/80) intraperitoneally 30 min before the injection of phenyl-p-quinone. A reduction in the number of writhes responding to the test drug compound relative to the number responding in saline control group was considered to be indicative of an analgesic effect. Analgesic effect was calculated by % inhibition equation (% inhibition=(C-T)/C x 100), wherein C and T represent the number of writhes in control and compound-treated group, respectively (Table 2).

SMILES	IC50 (vanilloid receptor)	Analgesic effect (%Inhibition) (Male ICR mice; Dose 1 mg/kg intraperitoneally 30 min before phenyl-p-quinone (4.5mg/kg))	Analgesic effect (%Inhibition) (Male ICR mice; Dose 0.3 mg/kg intraperitoneally 30 min before phenyl-p-quinone (4.5mg/kg))
C=Cc1cc(C(C)NC(=S)NCc2ccc(C(C)(C)C)cc2)cc(F)c1NS(C)(=O)=O (centres unmarked) [Example 6, N-(4-{1-[3-(4-t-butylbenzyl)thioureido]ethyl}-2-fluoro-6-vinyl-phenyl) methanesulfonamide]	120 nM	–	–
C=Cc1cc(CNC(=S)NCc2ccc(C(C)(C)C)cc2)ccc1NS(C)(=O)=O [Example 1, N-{4-[3-(4-t-butylbenzyl)thioureido-methyl]-2-vinyl-phenyl} methanesulfonamide]	54 nM	–	93%
C=Cc1cc(CNC(=S)NCc2ccc(C(C)(C)C)cc2)cc(C(F)(F)F)c1NS(C)(=O)=O [Example 2, N-{4-[3-(4-t-butylbenzyl)thioureido-methyl]-2-trifluoromethyl-6-vinyl-phenyl}methanesulfonamide]	330 nM	–	–

Now from value to compound, other results behind:

IC50 (vanilloid receptor)	SMILES	Analgesic effect (%Inhibition) (Male ICR mice; Dose 1 mg/kg intraperitoneally 30 min before phenyl-p-quinone (4.5mg/kg))	Analgesic effect (%Inhibition) (Male ICR mice; Dose 0.3 mg/kg intraperitoneally 30 min before phenyl-p-quinone (4.5mg/kg))
35 nM	C=Cc1cc(CNC(=S)NCc2ccc(C(C)(C)C)cc2)cc(F)c1NS(C)(=O)=O [Example 3, N-{4-[3-(4-t-butylbenzyl)thioureido-methyl]-2-fluoro-6-vinyl-phenyl}methanesulfonamide]	57%	–
93 nM	C=Cc1cc(CNC(=S)NCc2ccc(C(C)(C)C)cc2)cc(Cl)c1NS(C)(=O)=O [Example 4, N-{4-[3-(4-t-butylbenzyl)thioureido-methyl]-2-chloro-6-vinyl-phenyl}methanesulfonamide]	–	–
190 nM	C=Cc1cc(CNC(=S)NCc2ccc(C(C)(C)C)cc2)cc(C)c1NS(C)(=O)=O [Example 5, N-{4-[3-(4-t-butylbenzyl)thioureido-methyl]-2-methyl-6-vinyl-phenyl}methanesulfonamide]	–	–
